Assay results: patent publication US20210353749A1, “GUANABENZ AS AN ADJUVANT FOR IMMUNOTHERAPY” (UNIVERSITÉ CATHOLIQUE DE LOUVAIN, priority 2018, published 2021)

Tests used:
TiRP tumor = assay: TiRP melanoma model with adoptive cell transfer of activated P1A-specific CD8+ T cells; assay type: in vivo, mouse; details: alprenolol 5 mg/kg i.p. daily with ACT
Excerpt: TiRP mice: TiRP mice have been created by crossing Ink4a/Arf^flox/flox mice with mice carrying a transgenic construct controlled by the tyrosinase promoter and driving the expression of H-Ras^12V and Trap1a which encodes a MAGE-type tumor antigen P1A; the promoter is separated from the coding region by a stop cassette made of a floxed self-deleting CreER (Huijbers et al., 2006, Cancer Res 66, 3278-3286). Those mice were backcrossed to a B10.D2 background and bred to homozygosity. TCRP1A mice heterozygous for the H-2Ld/P1A35-43-specific TCR transgene were kept on the B10.D2; Rag1^−/− background (Shanker et al., 2004, J Immunol 172, 5069-5077). All mice used in this study were produced under specific pathogen free (SPF) conditions at the animal facility of the Ludwig Institute for Cancer Research. All the rules concerning animal welfare have been respected according to the 2010/63/EU Directive. All procedures were performed with the approval of the local Animal Ethical Committee, with reference 2015/UCL/MD/15.
A fresh solution of 40H-Tamoxifen was prepared by dissolving 40H-Tamoxifen (Imaginechem) in 100% ethanol and mineral oil (ratio 1:9) followed by 30-min sonication, and injected subcutaneously (2 mg/200 μL per mouse) in the neck area of gender-matched 7 weeks old TiRP mice. Tumor appearance was monitored daily and tumors were measured three times/week. Tumor volume (in mm^3) was calculated by the following formula: Volume=width^2×length/2. Tumor-bearing TiRP mice were randomized based on the tumor size when average volume was 400 mm^3, 500 mm^3 or 1000 mm^3 as indicated.
(§1) T cells were incubated with guanabenz (10, 20, or 40 μM) for 16 h to 24 h as indicated. Mice received a daily intra-peritoneal injection of guanabenz (5 mg/kg) or vehicle (PBS) from the day of randomization (and the day of ACT when applicable) until the day of sacrifice.
For the adoptive cell transfer (ACT), P1A-specific (TCRP1A) CD8^+ T cells were isolated from spleens and lymph nodes of TCRP1A mice as described hereinabove, and stimulated in vitro by co-culture with irradiated (10.000 rads) L1210-P1A-B7.1 cells (Gajewski et al., 1995, J Immunol 154, 5637-5648) at 1:2 ratio (0.5×10^5 CD8^+ T cells and 10^5 L1210-P1A-B7.1 cells per well in 48-well plates) in IMDM (GIBCO) containing 10% fetal bovine serum supplemented with L-arginine (0.55 mM, Merck), L-asparagine (0.24 mM, Merck), glutamine (1.5 mM, Merck), betamercaptoethanol (50 μM, Sigma), 50 UmL^−1 penicillin and […] (Life Technologies). Four days later, TCRP1A CD8^+ T cells were purified on a Lymphoprep gradient (StemCell) and 10^7 living cells were injected intravenously in 200 μL PBS in TiRP-tumor bearing mice on the day of randomization.
Mice received a daily intra-peritoneal injection of alprenolol (5 mg/kg) or vehicle (PBS) from the day of ACT until the day of sacrifice.
T cells were incubated with sunitinib (0.1, 0.3, 0.8, 2.5 or 4 μM) for 16 h as indicated. Mice received a daily dose of sunitinib (20 mg/kg) or vehicle (PBS) by oral gavage from the day of ACT until the day of sacrifice.

[1] = test system: Mouse TCRP1A CD8+ T cells; assay: CD107 cytotoxicity assay (degranulation assay), mouse T cells; assay type: cell-based; details: alprenolol 5 μM or 20 μM, 16 hours, vs control (PBS); FIG. 11A
Description: Mouse TCRP1A CD8^+ T cells: P1A-specific (TCRP1A) CD8^+ T cells were isolated from spleens and lymph nodes of TCRP1A mice using anti-mouse CD8a (Ly-2) MicroBeads (Miltenyi Biotec).
CD107 cytotoxicity assay (Degranulation assay): TCRP1A CD8^+ T cells were plated at 50,000 cells per well in a 96 U plate with different concentrations of guanabenz and incubated at 37° C. overnight prior to their use in the assay on the next day. On the day of the assay, the culture supernatant was removed from the cells and the cells were washed once with complete medium to remove the drug. The target cells L1210-P1A-B7.1 were added to the wells at a ratio of 1:1. Control wells containing either only T cells or target cells were also included for each plate. CD107a-APC was added to each well at the same time as addition of the target cells. The plate was then incubated at 37° C. for 90 minutes. At the end of the incubation period the cells were harvested and washed once with PBS. They were stained with anti-mouse CD8-Bv421 antibody for 15 minutes. The cells were then washed and resuspended in PBS and analyzed using FACS Fortessa flow cytometer. Human CD8^+ T cell degranulation was evaluated in a similar way. To induce CD8^+ T cell degranulation, T2 cells loaded with synthetic WT1126-134 peptide (10^6 T2 cells were incubated for 1 hour in 200 μL Optimem medium with 100 μmol/L synthetic peptide at 37° C.) were used as target cells.
as §1
CD107 cytotoxicity assay (Degranulation assay): the assay was carried out as described hereinabove (see Example 1) with different 20 μM guanabenz or different concentrations of alprenolol or sunitinib, as indicated.
T cells were incubated with 20 μM guanabenz for 16 h as indicated.
T cells were incubated with alprenolol (5 or 20 μM) for 16 h as indicated. […]

`C=CCc1ccccc1OCC(O)CNC(C)C` (stereo not drawn) [alprenolol] was tested, and the “tumor infiltration of CD8+ T cells (tetramer+ CD8+ T cells among total CD45+ cells)” value (TiRP tumor; 7 days after ACT, FIG. 11C) was “not increased”, the tumor growth (TiRP tumor; day 0 to day 10, vs ACT alone, FIG. 11B) was “not significantly decreased” and the “T cell degranulation (FACS detection of CD107a)” value [1] was “did no significantly increase”.
